Data reported in patent US8658649B2, “Kinase inhibitor” (Sanofi, priority 2006, dated 2014).

Assays:
[1] = tested on: Collagen-induced arthritis (CIA); assay: Rat collagen induced arthritis, therapeutic dosing; type: in vivo
Description: (§1) Immunization and Challenge: Female Lewis rats were immunized on day 0 and challenged on day 7 with cII from bovine nasal mixed with Freund's incomplete adjuvant at a final collagen concentration of 1.0 mg/ml. The animals were injected at the base of the tail with 400 μg of cII.
Therapeutic Dosing Regimen: The compound of Formula I (10 and 30 mg/kg, p.o., b.i.d.) was orally administered starting on day 12 and continued through day 21.
(§2) Joint Pathology Ankle joint swelling was measured to the nearest 0.01 mm by using electronic digital calipers. Measurements were recorded 7 times throughout the study starting on day 6 and ending on day 21. Body weights were recorded on the same days. On day 21, hind paws were removed at the hairline just above the ankle and fixed in 10% neutral buffered formalin.
MicroCT analysis: Ankle joints were examined using a cone-beam μCT scanner. […] In ankle joints, the ratio of bone surface to bone volume, describing the complexity of bone surface in a certain volume, was analyzed.
Statistical Analysis For joint swelling/inflammation, data were analyzed using Everstat v.5 software and a 2-way repeated measure ANOVA with Dunnett's post test. MicroCT data were analyzed by Everstat using a 1-way ANOVA and Newman-Keuls multiple comparison test. […]

Syk = target: T1, Syk (Homo sapiens, UniProt P43405); assay: Syk substrate phosphorylation, Streptavidin FlashPlate; type: biochemical; conditions: 7.77 nM Flag-tagged Syk, PGT-Biotin substrate, 33P-ATP
T1 construct: Flag; made in house
Text: • Assay Name: Spleen Tyrosine (Y) Kinase • Short Name: Syk • Assay Format: Substrate Phosphorylation • Detection Format: Streptavidin FlashPlate • Modulation: Inhibition
Streptavidin FlashPlate Plus microplates from PerkinElmer Life Sciences™ are designed for in-plate radiometric assays. The interior of each well is permanently coated with a thin layer of polystyrene-based scintillant followed by covalent binding of Streptavidin. These plates are suitable for a wide variety of assay applications which utilize biotinylated capture molecules. Poly (Glu,Tyr) 4:1 (PGT) is a random copolymer that can act as a substrate for tyrosine-specific protein kinases. The assay measures the phosphorylation of PGT-Biotin substrate by Syk. The enzyme transfers the [γ^33P]-phosphate from [γ^33P]-ATP to the polymeric substrate. The assay was run in solution in a non-binding 384-well plate. After stopping the reaction using phosphoric acid, the reaction mixture was transferred to a 384-well Streptavidin Flashplate. The biotinylated substrate was captured onto the plate and other reagents including hot ATP were washed away. Each well was then counted for radioactivity.
The enzyme reaction was run in a 384-well non-binding plate. […] Radioactivity was counted on a Top Count™ scintillation counter. […]

[2] = tested on: Collagen-induced arthritis (CIA); assay: Rat collagen induced arthritis, prophylactic dosing; type: in vivo; conditions: vs vehicle
Description: as §1
Prophylactic Dosing Regimen: The compound of Formula I (3.0, 10, and 30 mg/kg) was orally dosed (p.o.) twice daily (b.i.d.) starting on day 6 and continued through day 21.
as §2
MicroCT analysis: Ankle joints were examined using a cone-beam μCT scanner. A scout view scan was obtained first for selection of the examination volume of the specimens, followed by positioning, measurement and computational reconstruction. In ankle joints, the ratio of bone surface to bone volume, describing the complexity of bone surface in a certain volume, was analyzed.
Statistical Analysis For joint swelling/inflammation, data were analyzed using Everstat v.5 software and a 2-way repeated measure ANOVA with Dunnett's post test. MicroCT data were analyzed by Everstat using a 1-way ANOVA and Newman-Keuls multiple comparison test. Data are presented as the mean±SEM and p values of <0.05 are considered significant.

Structure (SMILES): CCc1c(-c2ccc(C(C)(C)O)cc2)[nH]c2nccnc12 [compound of Formula I, 2-[4-(7-Ethyl-5H-pyrrolo[2,3-b]pyrazin-6-yl)-phenyl]-propan-2-ol]
- bone erosion (ratio of bone surface to bone volume), MicroCT ([1]; 10 mg/kg or 30 mg/kg, therapeutic dosing, vs vehicle): significant decrease in bone erosion
- ankle swelling/inflammation ([1]; 10 and 30 mg/kg p.o. b.i.d. from day 12, day 15-21): significantly reduced ankle swelling/inflammation
- IC50 (Syk): 1.7 nM
- ankle swelling/inflammation ([2]; 3.0 mg/kg p.o. b.i.d. day 6-21, on day 12 only): significantly reduced ankle swelling/inflammation
- ankle swelling/inflammation ([2]; 10 mg/kg p.o. b.i.d. day 6-21, on days 12 through 19): significantly reduced ankle swelling/inflammation
- ankle swelling/inflammation ([2]; 30 mg/kg p.o. b.i.d. day 6-21, from day 12 through day 21): significantly reduced ankle swelling/inflammation
- bone erosion (ratio of bone surface to bone volume), MicroCT ([2]; 3, 10 or 30 mg/kg b.i.d.): significant reductions in bone erosion
